Calls of active or inactive are those of the source. The rule behind the calls is not given here.
Key:
[1] = target: Cyclin-dependent kinase 12 (Homo sapiens) (UniProt Q9NYV4); experiment: Inhibition of wild type partial length human CDK12 (697 to 1077 residues) to expressed in mammalian expression system at 1 uM by KINOMEscan analysis
[2] = target: Myosin-IIIb (Homo sapiens) (UniProt Q8WXR4); experiment: Inhibition of wild type partial length human MYO3B (1 to 357 residues) expressed in bacterial expression system at 1 uM by KINOMEscan analysis
[3] = target: Mitogen-activated protein kinase kinase kinase 7 (Homo sapiens) (UniProt O43318); experiment: Inhibition of wild type partial length human TAK1 (1 to 303 residues) expressed in mammalian expression system at 1 uM by KINOMEscan analysis
HL-60 = experiment: Antiproliferative activity against human HL-60 cells assessed as reduction in cell viability measured after 72 hrs; type: functional, cell-based; details: HL-60, 72 h
[4] = target: Cyclin-dependent kinase 9 (Homo sapiens) (UniProt P50750); experiment: Inhibition of CDK9 in human MV4-11 cells assessed as reduction in c-Myc mRNA expression at 0.1 to 2 uM incubated for 12 hrs by qPCR analysis; type: cell-based; details: dose 0.1-2 µM
MV4-11 [5] = experiment: Downregulation of cyclin T1 protein expression in human MV4-11 cells incubated for 12 hrs by western blot analysis; type: functional, cell-based; details: dose 0.1-4 µM
MV4-11 [6] = experiment: Induction of apoptosis in human MV4-11 cells assessed as necrotic cells at 0.5 uM incubated for 24 hrs by AnnexinV-FITC/PI staining based flow cytometry (reference value: 0%); type: functional
MV4-11 [7] = experiment: Induction of apoptosis in human MV4-11 cells assessed as late apoptotic cells at 2 uM incubated for 24 hrs by AnnexinV-FITC/PI staining based flow cytometry (reference value: 5.21%); type: functional
MV4-11 [8] = experiment: Induction of apoptosis in human MV4-11 cells assessed as necrotic cells at 2 uM incubated for 24 hrs by AnnexinV-FITC/PI staining based flow cytometry (reference value: 0%); type: functional
MV4-11 [9] = experiment: Induction of apoptosis in human MV4-11 cells assessed as necrotic cells at 4 uM incubated for 24 hrs by AnnexinV-FITC/PI staining based flow cytometry (reference value: 0%); type: functional

Sequence of Cyclin-dependent kinase 12 (Homo sapiens) (Q9NYV4 whole entry, looked up, the tested form may be a part): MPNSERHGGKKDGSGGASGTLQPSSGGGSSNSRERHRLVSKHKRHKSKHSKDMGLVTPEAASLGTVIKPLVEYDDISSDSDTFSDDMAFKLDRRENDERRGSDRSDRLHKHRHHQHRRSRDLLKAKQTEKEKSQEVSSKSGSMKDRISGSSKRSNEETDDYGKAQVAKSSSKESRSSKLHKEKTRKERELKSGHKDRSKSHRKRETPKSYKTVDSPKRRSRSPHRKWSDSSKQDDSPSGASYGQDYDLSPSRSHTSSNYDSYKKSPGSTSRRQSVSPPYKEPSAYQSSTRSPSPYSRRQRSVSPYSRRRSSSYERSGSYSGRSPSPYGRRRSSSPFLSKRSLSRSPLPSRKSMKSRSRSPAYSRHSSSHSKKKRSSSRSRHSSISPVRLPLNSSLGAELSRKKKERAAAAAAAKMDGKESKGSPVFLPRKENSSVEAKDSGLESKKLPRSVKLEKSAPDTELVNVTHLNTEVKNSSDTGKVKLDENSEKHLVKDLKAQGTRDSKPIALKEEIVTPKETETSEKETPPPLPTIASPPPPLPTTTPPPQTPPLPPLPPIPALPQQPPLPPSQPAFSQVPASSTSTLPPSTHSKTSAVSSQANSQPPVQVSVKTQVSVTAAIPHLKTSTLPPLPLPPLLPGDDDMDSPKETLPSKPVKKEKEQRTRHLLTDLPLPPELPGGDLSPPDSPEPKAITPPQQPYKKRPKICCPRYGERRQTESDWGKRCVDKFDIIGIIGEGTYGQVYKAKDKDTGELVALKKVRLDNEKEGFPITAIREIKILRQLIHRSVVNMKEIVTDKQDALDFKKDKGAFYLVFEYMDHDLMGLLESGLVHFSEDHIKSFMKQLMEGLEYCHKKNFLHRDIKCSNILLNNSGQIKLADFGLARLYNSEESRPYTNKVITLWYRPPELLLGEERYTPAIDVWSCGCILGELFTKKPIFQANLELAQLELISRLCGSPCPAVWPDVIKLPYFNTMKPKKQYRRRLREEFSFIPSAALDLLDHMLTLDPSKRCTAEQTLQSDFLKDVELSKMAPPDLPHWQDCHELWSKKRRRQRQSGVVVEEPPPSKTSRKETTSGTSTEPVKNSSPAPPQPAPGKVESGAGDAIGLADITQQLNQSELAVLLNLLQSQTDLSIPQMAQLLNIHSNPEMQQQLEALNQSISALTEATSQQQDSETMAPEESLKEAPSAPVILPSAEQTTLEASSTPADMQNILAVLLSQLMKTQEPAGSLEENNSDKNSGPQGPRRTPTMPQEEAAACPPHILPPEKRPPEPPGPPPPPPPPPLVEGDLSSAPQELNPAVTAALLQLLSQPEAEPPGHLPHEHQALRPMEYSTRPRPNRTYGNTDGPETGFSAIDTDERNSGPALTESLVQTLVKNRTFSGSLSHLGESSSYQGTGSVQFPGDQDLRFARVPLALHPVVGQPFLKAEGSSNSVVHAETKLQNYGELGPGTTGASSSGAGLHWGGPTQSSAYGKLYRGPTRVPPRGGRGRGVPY
Sequence of Mitogen-activated protein kinase kinase kinase 7 (Homo sapiens) (O43318 whole entry, the tested form may be a part): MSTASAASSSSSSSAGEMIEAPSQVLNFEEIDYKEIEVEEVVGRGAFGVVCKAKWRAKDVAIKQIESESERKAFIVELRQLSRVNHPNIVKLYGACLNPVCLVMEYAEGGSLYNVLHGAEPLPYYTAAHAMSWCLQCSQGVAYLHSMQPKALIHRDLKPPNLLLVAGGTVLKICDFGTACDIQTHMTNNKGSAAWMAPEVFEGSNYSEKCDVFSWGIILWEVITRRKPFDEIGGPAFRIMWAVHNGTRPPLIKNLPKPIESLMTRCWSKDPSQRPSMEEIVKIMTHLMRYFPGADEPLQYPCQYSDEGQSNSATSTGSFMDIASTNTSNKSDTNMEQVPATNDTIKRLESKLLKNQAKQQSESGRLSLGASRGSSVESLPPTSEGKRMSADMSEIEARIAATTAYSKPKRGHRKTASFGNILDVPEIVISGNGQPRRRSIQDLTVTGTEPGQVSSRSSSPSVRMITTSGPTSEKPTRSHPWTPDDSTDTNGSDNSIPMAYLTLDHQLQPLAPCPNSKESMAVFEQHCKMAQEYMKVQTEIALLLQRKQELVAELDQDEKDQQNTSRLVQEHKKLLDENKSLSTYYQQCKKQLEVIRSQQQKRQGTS
Sequence of Cyclin-dependent kinase 9 (Homo sapiens) (P50750 whole entry): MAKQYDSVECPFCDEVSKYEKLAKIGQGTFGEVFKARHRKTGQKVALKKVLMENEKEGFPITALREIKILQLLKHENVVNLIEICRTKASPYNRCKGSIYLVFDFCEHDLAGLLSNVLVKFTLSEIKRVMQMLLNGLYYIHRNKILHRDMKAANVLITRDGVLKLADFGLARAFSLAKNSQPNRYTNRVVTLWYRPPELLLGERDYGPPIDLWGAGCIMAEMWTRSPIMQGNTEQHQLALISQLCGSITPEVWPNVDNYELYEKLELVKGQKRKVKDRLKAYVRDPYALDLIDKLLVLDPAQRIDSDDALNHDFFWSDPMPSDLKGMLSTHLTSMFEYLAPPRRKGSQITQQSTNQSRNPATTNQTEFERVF
Sequence of Myosin-IIIb (Homo sapiens) (Q8WXR4 whole entry, the tested form may be a part): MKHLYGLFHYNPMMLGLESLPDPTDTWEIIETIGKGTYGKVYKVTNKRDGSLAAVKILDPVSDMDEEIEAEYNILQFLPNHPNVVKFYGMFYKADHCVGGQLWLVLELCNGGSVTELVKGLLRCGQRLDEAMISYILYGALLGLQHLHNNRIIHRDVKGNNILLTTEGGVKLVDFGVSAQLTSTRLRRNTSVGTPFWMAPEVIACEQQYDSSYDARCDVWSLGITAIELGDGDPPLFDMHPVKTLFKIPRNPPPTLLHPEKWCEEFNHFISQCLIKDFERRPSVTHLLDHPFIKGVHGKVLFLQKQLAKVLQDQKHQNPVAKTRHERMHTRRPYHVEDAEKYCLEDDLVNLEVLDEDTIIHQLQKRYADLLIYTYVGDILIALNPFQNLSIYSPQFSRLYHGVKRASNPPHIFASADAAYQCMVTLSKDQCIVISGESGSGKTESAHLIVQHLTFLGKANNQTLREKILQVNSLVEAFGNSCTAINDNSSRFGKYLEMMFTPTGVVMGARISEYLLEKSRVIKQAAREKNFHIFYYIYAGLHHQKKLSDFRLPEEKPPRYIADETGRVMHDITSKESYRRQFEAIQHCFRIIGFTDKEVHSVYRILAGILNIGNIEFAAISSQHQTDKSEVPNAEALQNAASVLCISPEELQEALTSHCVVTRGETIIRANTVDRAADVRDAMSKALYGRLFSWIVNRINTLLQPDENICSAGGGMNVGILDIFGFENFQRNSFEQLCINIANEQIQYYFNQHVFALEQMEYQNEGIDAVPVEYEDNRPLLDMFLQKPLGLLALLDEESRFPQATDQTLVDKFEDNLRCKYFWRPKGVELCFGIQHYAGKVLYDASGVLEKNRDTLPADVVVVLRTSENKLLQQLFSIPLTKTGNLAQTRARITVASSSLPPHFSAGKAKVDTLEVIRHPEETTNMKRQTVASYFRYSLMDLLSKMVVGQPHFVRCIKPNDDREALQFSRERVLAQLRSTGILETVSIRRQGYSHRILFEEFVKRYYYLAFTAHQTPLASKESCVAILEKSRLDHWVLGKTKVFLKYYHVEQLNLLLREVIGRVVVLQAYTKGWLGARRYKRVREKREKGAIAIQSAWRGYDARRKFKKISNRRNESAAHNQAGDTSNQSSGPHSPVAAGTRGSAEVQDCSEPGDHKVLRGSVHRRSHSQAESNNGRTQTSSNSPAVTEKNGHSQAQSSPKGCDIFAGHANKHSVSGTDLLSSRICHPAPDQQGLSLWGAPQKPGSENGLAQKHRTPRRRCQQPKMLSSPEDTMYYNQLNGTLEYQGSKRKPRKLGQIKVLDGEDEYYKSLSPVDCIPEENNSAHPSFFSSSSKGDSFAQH

Compound: COc1cc(O)c2c(=O)cc(-c3ccc(N4CCN(C)CC4)cc3)oc2c1C1=CCN(C)CC1
- inhibition [1]: 0%
- inhibition [2]: 0%
- inhibition [3]: 9.5%
- IC50 (HL-60): 180 nM
- inhibition [4]: Active
- inhibition (MV4-11 [5]): Dose-Dependent Effect
- Activity (MV4-11 [6]): 0%
- Activity (MV4-11 [7]): 29.8%
- Activity (MV4-11 [8]): 0.11%
- Activity (MV4-11 [9]): 0.42%

From ChEMBL document CHEMBL5634084, “Design and optimization of selective and potent CDK9 inhibitors with flavonoid scaffold for the treatment of acute myeloid leukemia” (Eur J Med Chem, 2023)
